Legend:
rabbit carotid artery = assay: Pulsed Doppler Signal Enhancement Rabbit Model (carotid artery); format: in vivo; details: Powder D, osmotic agent in mixture with nitrogen, injected dose 0.2 ml (ca. 1 mg dry powder per kg)
Experimental: (§1) One ml of the resulting microbubble suspension was injected intravenously into an approximately 3 kg rabbit instrumented to monitor the Doppler ultrasound signal of its carotid artery. A 10 MHz flow cuff (Triton Technology Inc., San Diego, Calif.; model ES-10-20) connected to a System 6 Doppler flow module (Triton Technology Inc.) fed the RF Doppler signal to a LeCroy 9410 oscilloscope (LeCroy, Chestnut Ridge, N.Y.). The root mean square (RMS) voltage of the signal computed by the oscilloscope was transferred to a computer and the resultant curve fitted to obtain peak echogenic signal intensity and half-life of the microbubbles in blood. Signals before contrast were less than 0.1 volts RMS.
as §1, with “half-ife” for “half-life”
as §1, with “RF doppler” for “RF Doppler”, “obtain Peak” for “obtain peak”
100 mg samples of the spray-dried powder were placed in 10-ml vials and gassed by perfluoroether-air mixture repeated evacuation-gassing cycles with the help of a syringe needle equipped with a three-way valve. As the filling gases, perfluorodimethyl ether (85%, Exfluor Research, Austin, Tex.), perfluoro(methylethyl ether) (80%, Exfluor Research, Austin, Tex.), perfluoro(diethyl ether) (90%, Strem Chemicals, Newburyport, Mass.), n-perfluoropropane and n-perfluorobutane (97%, PCR Incorporated) were used. […] Their echogenic properties in vivo were evaluated using a Pulsed Doppler Signal Enhancement Rabbit Model as described in Example III.
After reconstituting the powder with 10 ml of water, the bubbles were formed. Their echogenic properties in vivo were evaluated using a Pulsed Doppler Signal Enhancement Rabbit Model, as described in Example III, with the difference that the injected dose was reduced to 0.2 ml (ca. 1 mg of dry powder per kg of rabbit). FIGS. 2a, 2b, and 2c compare the decay of ultrasound signal over time for different filling gases at close partial pressures. The data are arranged in pairs so that microbubble preparations comprising perfluoroethers (thick lines) are compared directly with their perfluorocarbon analogues (thin lines). From the graphs it is evident that perfluoroether-filled bubbles have a longer persistence in the bloodstream than their fluorocarbon analogues.

[1] = 25 degrees C.; literature, or if not there calculated with the model of Lawson et al.; cited from earlier work
pig heart = assay: Second harmonic ultrasound imaging of the heart, pig model; format: in vivo, pigs; details: Powder D with osmotic agent-N2 mixture, 0.5 mL infused over 1 min via jugular vein
Experimental: After reconstituting the powder with 10 ml of water, the bubbles were formed.
Anesthetized pigs (14-16 kg) were fitted with indwelling catheters in the femoral artery and femoral and jugular veins for hemodynamic monitoring and contrast agent administration. Parasternal short-axis cardiac images at the level of the papillary muscles were obtained using an HP Sonos 2500 Ultrasound machine. Images were acquired in the Second Harmonic mode with a wide bandwidth linear phased array probe emitting at 2 MHz and receiving at 4 MHz. Imaging was intermittent (gated), triggered at end-diastole of every cardiac cycle. 0.5 mnL of reconstituted contrast agent was diluted with 0.5 mL sterile saline and infused over 1 min via the jugular vein.
FIGS. 3, 4, and 5 show a time course of ultrasound images of the heart following intravenous administration of contrast agents. […] FIGS. 4 and 5 show ultrasound images of the same hearts one minute and six minutes after infusion with the respective contrast agents. FIGS. 3a, 4a, and 5a show the ultrasound images of the heart following intravenous administration of contrast agent stabilized by perfluoropolyether. FIGS. 3b, 4b, and 5b show the ultrasound images of the heart following intravenous administration of contrast agent stabilized by perfluorohexane.

[2] = 25 degrees C.; first four values, as reported by Wilhelm, Battino and Wilcock; cited from earlier work

FC(F)(F)OC(F)(F)C(F)(F)OC(F)(F)C(F)(F)OC(F)(F)F [CF3O(CF2CF2O)2CF3, perfluorodiglyme]
Time of decay of the Doppler signal to baseline, s, at ρF = 0.13 ± 0.03 atm (rabbit carotid artery): >1800 s | PF, sat9 atm (saturated vapor pressure) [1]: 0.20 atm

FC(F)(F)OC(F)(F)C(F)(F)OC(F)(F)C(F)(F)F [CF3OC2F4OC2F5]
PF, sat9 atm (saturated vapor pressure) [1]: 0.55 atm

FC(F)(F)OC(F)(F)C(F)(F)OC(F)(F)F [CF3OC2F4OCF3, perfluoromonoglyme]
Time of decay of the Doppler signal to baseline, s, at ρF = 0.13 ± 0.03 atm (rabbit carotid artery): 400 s | PF, sat9 atm (saturated vapor pressure) [1]: 1.16 atm

FC(F)(F)OC(F)(F)F [CF3OCF3, perfluorodimethylether]
PF, sat9 atm (saturated vapor pressure) [1]: 10.9 atm

FC(F)(F)OC(F)(F)OC(F)(F)OC(F)(F)OC(F)(F)F [CF3—(OCF2)3OCF3]
contrast of the heart one minute after injection (pig heart): Substantial contrast of the heart | tissue contrast of the heart at six minutes (pig heart): still a great deal of tissue contrast | Time of decay of the Doppler signal to baseline, s, at ρF = 0.13 ± 0.03 atm (rabbit carotid artery): 1200 s

FC(F)(F)F [CF4]
L × 10^6 (Ostwald coefficient) [2]: 5172 | PF, sat9 atm (saturated vapor pressure) [1]: 159 atm

FS(F)(F)(F)(F)F [SF6]
L × 10^6 (Ostwald coefficient) [2]: 5950 | PF, sat9 atm (saturated vapor pressure) [1]: 23.5 atm

FC(F)(F)C(F)(F)OC(F)(F)C(F)(F)F [Sample C2F5OC2F5, perfluorodiethylether]
PF, sat9 atm (saturated vapor pressure) [1]: 1.9 atm

FC(F)(F)C(F)(F)F [Sample C2F6, C2F6]
PF, sat9 atm (saturated vapor pressure) [1]: 26.2 atm

FC(F)(F)C(F)(F)C(F)(F)OC(F)(F)C(F)(F)C(F)(F)F [Sample C3F7OC3F7, C3F7OC3F7]
PF, sat9 atm (saturated vapor pressure) [1]: 0.30 atm

O=O [Sample O2, oxygen]
L × 10^6 (Ostwald coefficient) [2]: 31110

FC(F)(F)C(F)(F)C(F)(F)F [n-C3F8, n-perfluoropropane]
PF, sat9 atm (saturated vapor pressure) [1]: 6.8 atm

FC(F)(F)C(F)(F)C(F)(F)C(F)(F)F [n-C4F10, perfluorobutane]
Time of decay of the Doppler signal to baseline, s, at ρF = 0.13 ± 0.03 atm (rabbit carotid artery): 300 s | PF, sat9 atm (saturated vapor pressure) [1]: 2.2 atm

FC(F)(F)C(F)(F)C(F)(F)C(F)(F)C(F)(F)F [n-C5F12, perfluoropentane]
Time of decay of the Doppler signal to baseline, s, at ρF = 0.13 ± 0.03 atm (rabbit carotid artery): 400 s | PF, sat9 atm (saturated vapor pressure) [1]: 0.84 atm

FC(F)(F)C(F)(F)C(F)(F)C(F)(F)C(F)(F)C(F)(F)F [n-C6F14, perfluorohexane]
contrast of the heart one minute after injection (pig heart): Substantial contrast of the heart | tissue contrast of the heart at six minutes (pig heart): declined markedly | Time of decay of the Doppler signal to baseline, s, at ρF = 0.13 ± 0.03 atm (rabbit carotid artery): 600 s | PF, sat9 atm (saturated vapor pressure) [1]: 0.27 atm

nitrogen [Sample N2]
L × 10^6 (Ostwald coefficient) [2]: 15880
